{"source": "patent US20190160054A1", "about": "“PHARMACEUTICAL COMBINATION OF NINTEDANIB, TRIFLURIDINE AND TIPIRACIL FOR TREATING COLORECTAL CANCER” (Boehringer Ingelheim International GmbH, priority 2016, published 2019)", "key": {"HT-29": {"tested_on": "HT-29", "assay": "in vivo anti-tumor efficacy, colorectal xenograft model HT-29"}, "Calu-6": {"tested_on": "Calu-6", "assay": "in vivo anti-tumor efficacy, non-small-cell lung xenograft model Calu-6", "conditions": "Calu-6, 50 mg/kg/d"}, "Caki-1": {"tested_on": "Caki-1", "assay": "in vivo anti-tumor efficacy, renal xenograft model Caki-1", "conditions": "Caki-1, 100 mg/kg/d"}, "Rip-Tag": {"tested_on": "Rip-Tag", "assay": "in vivo anti-tumor efficacy, pancreas murine transgenic model Rip-Tag"}, "PAC-120": {"tested_on": "PAC-120", "assay": "in vivo anti-tumor efficacy, hormone-dependent prostate xenograft model PAC-120", "conditions": "PAC-120, 100 mg/kg/d"}, "[1]": {"tested_on": "metastatic colorectal cancer", "assay": "phase I/II study of the combination of Compound A1 with Compound Mixture B1 (UMIN000017114)", "type": "in vivo, patients", "excerpt": "The key eligibility criteria were patients with metastatic colorectal cancer refractory or intolerant to fluoropyrimidine, irinotecan, oxaliplatin, anti-angiogenesis inhibitor and anti-EGFR antibody (if wild-type RAS) and without prior regorafenib and Compound Mixture B1 treatment; at least one measurable lesion; and ECOG performance status of 0 or 1.\nSecondary endpoints included overall survival (OS), PFS, objective response rate, disease control rate, safety, and pharmacokinetic parameters.\nKey Inclusion Criteria: • 1) Written informed consent • 2) >=20 years old • 3) Histologically or cytologically proven adenocarcinoma of colon or rectum (except appendiceal cancer), and KRAS test were carried out. • 4) Prior chemotherapy was discontinued due to disease progression, or an adverse event. • 5) No prior treatment with Regorafenib • 6) ECOG Performance Status of 0 or 1 • 7) Adequate oral intake • 8) With measurable disease according to RECIST • 9) Adequate organ function within 14 days prior to enrollment. • a. Hemoglobin>=9.0 g/d • b. Absolute neutrophil count>=1,500/mm3 • c. Platelet count>=100,000/mm3 • d with no liver metastasis, AST/ALT<=ULNx1.5 and T-Bil<=UNL with liver metastasis, AST/ALT<=ULNx2.5 and T-Bil<=UNL • e Serum creatinine<=1.5 mg/dL • 10) Women of childbearing potential must have a negative pregnancy test within 7 days prior to enrollment. […]"}, "GS-9L": {"tested_on": "GS-9L", "assay": "in vivo anti-tumor efficacy, glioblastoma GS-9L syngeneic rat tumor model", "conditions": "50 mg/kg/d"}, "FaDu": {"tested_on": "FaDu", "assay": "in vivo anti-tumor efficacy, head and neck xenograft model FaDu", "conditions": "100 mg/kg/d"}, "SKOV3": {"tested_on": "SKOV3", "assay": "in vivo anti-tumor efficacy, ovarian xenograft model SKOV3", "conditions": "SKOV3, 50 mg/kg/d"}, "NCI-H460": {"tested_on": "NCI-H460", "assay": "in vivo anti-tumor efficacy, non-small-cell lung xenograft model NCI-H460", "conditions": "NCI-H460, 25 mg/kg/d"}}, "data": [{"smiles": "COC(=O)c1ccc2c(c1)NC(=O)/C2=C(\\Nc1ccc(N(C)C(=O)CN2CCN(C)CC2)cc1)c1ccccc1", "note": "[Compound A, 3-Z-[1-(4-(N-((4-methyl-piperazin-1-yl)-methylcarbonyl)-N-methyl-amino)-anilino)-1-phenyl-methylene]-6-methoxycarbonyl-2-indolinone]", "values": [{"measurement": "Efficacy T/C", "setting": "HT-29; HT-29 colorectal model, 100 mg/kg/d, T/C = reduction of tumor size in % of the control", "value": "T/C 16% @ 100 mg/kg/d"}, {"measurement": "Efficacy", "setting": "HT-29; HT-29 large tumors", "value": "tumor volume reduction"}, {"measurement": "Efficacy T/C", "setting": "Calu-6", "value": "T/C 24% @ 50 mg/kg/d"}, {"measurement": "Efficacy T/C", "setting": "Caki-1", "value": "T/C 13% @ 100 mg/kg/d"}, {"measurement": "Efficacy", "setting": "Rip-Tag", "value": "interference with tumor"}, {"measurement": "Efficacy T/C", "setting": "PAC-120", "value": "T/C 34% @ 100 mg/kg/d"}, {"measurement": "Two dose reduction of nintedanib, Reason", "setting": "[1]; All enrolled patients, N = 35", "value": "DILI (cycle 1, cycle 4)"}, {"measurement": "patients requiring at least one dose reduction of nintedanib", "setting": "[1]; all enrolled 35 patients, combination treatment", "value": "Five"}, {"measurement": "Efficacy T/C", "setting": "GS-9L", "value": "T/C 32% @ 50 mg/kg/d"}, {"measurement": "Efficacy T/C", "setting": "FaDu", "value": "T/C 11% @ 100 mg/kg/d"}, {"measurement": "Efficacy T/C", "setting": "SKOV3", "value": "T/C 19% @ 50 mg/kg/d"}, {"measurement": "Efficacy T/C", "setting": "NCI-H460", "value": "T/C 54% @ 25 mg/kg/d"}]}]}
